Some results are limits rather than exact numbers.

Test [1] has as its system Staphylococcus aureus 33592 (MRSA). Put plainly: ASTM E2315 suspension time-kill procedure. The note with it: contact time 2 hours; for CFU/mL / % Reduction / Log10 reduction: S. aureus 33592; for % Reduction / Log10 reduction: vs time zero control. The format is cell-based. On the procedure: (§1) Efficacy of these substances, alone and in combination, was tested against two strains of bacteria using the ASTM E2315 test method.
(2) Staphylococcus aureus 33592 (MRSA): This is a Gram-positive, coccus-shaped aerobe that is resistant to methicillin, a penicillin derivative. Rapid reproduction and resistance to antibiotics can make S. aureus infections particularly difficult to treat. MRSA bacteria are resistant to drying and can survive on surfaces and fabrics for an extended period of time.
(§2) ASTM E2315 is a quantitative test method designed to assess changes in the populations of a microorganism in an antimicrobial liquid suspension. The method can be conducted using contact times ranging from 10 seconds to 24 hours. The test method uses non-antimicrobial agents as controls to establish baselines for microbial reductions.
(§3) Test microorganisms were prepared in liquid culture medium. Suspensions of test microorganisms were standardized as needed by dilution in a buffered saline solution. Test and control substances were dispensed in identical volumes to sterile vessels.
(§4) Independently, test and control substances were inoculated with each test microorganism, then mixed and incubated. Control substances were immediately harvested and used to represent the concentration present at the start of the test.
(§5) At the conclusion of the contact time, a volume of liquid test solution was harvested and chemically neutralized. Test microorganisms were spun down and the cell pellet was resuspended in phosphate buffered saline (PBS) prior to inoculation of the test systems. 10 mL volumes of Dey/Engley neutralizer broth supplemented with 5% magnesium chloride and 35% polysorbate 80 were used for chemical neutralization. After chemical neutralization, test systems were filtered using a filtration manifold to recover surviving microorganisms.
(§6) Dilutions of neutralized test solution were assayed using appropriate growth media to determine surviving microorganism levels at each respective contact time. Reductions of microorganisms were calculated by comparing initial microbial concentrations to final microbial concentrations. The limit of detection for the assay was 10 CFU/mL.
(§7) Percent reduction of bacterial population was calculated according to the following equation, where A=number of viable test microorganisms in the test substance after the contact time and B=number of viable test microorganisms in the control substance immediately after inoculation. Log10 reduction was also calculated.
(§8) The experimental procedure of Example 1 was followed with the exception of substitutions of some antibiotics. Cefuroxime (a second generation cephalosporin) and/or ceftazidime (a third generation cephalosporin active against P. aeruginosa) were used to replace cefazolin.

For test [2], the system named is Pseudomonas aeruginosa 9027. As to the kind of experiment: ASTM E2315 suspension time-kill procedure. The note with it: P. aeruginosa 9027, contact time 2 hours; for % Reduction / Log10 reduction: vs time zero control. The format is cell-based. As for the experimental part:
as §1
(1) Pseudomonas aeruginosa 9027: This is a Gram-negative, rod-shaped microorganism with a single flagellum. P. aeruginosa grows optimally under aerobic conditions but can use various electron acceptors to respire anaerobically as needed. This organism is an opportunistic pathogen with the ability to form resilient biofilms in human tissues under anaerobic conditions.
as §2, §3, §4, §5, §6, §7, §8

Setting [3] is: Example 2, time zero control 3.35 × 10^7 CFU/mL.

Turning to `Cc1nnc(SCC2=C(C(=O)O)N3C(=O)[C@@H](NC(=O)Cn4cnnn4)[C@H]3SC2)s1` [Test 1, Cefazolin], the CFU/mL in test [1] (Example 1, time zero control 2.85 × 10^6 CFU/mL, ambient 25° C.) is reported as 1.44 × 10^5 CFU/mL. In addition, in test [1] (Example 1), the “% Reduction” value was 94.96% and the Log10 reduction is on record as 1.30.

For the molecule `CO/N=C(\C(=O)N[C@@H]1C(=O)N2C(C(=O)O)=C(COC(N)=O)CS[C@H]12)c1ccco1` [Test 8, Cefuroxime], the CFU/mL in test [1] (Example 2, time zero control 1.75 × 10^6 CFU/mL) is on record as 1.50 × 10^6 CFU/mL. Further, in test [1] (Example 2), the “% Reduction” value worked out at 14.29% and the Log10 reduction turned out to be 0.07. Besides, the “antibacterial effect / interaction of the antibiotics, in words” value (“antibacterial effect / interaction” below) in test [1] (S. aureus 33592 (MRSA)) was “less activity against MRSA than the first generation cephalosporin, cefazolin”.

On to `CO/N=C(\C(=O)N[C@@H]1C(=O)N2C(C(=O)O)=C(COC(N)=O)CS[C@H]12)c1ccco1` [Test 12, Cefuroxime], for which, in test [2] (setting [3]), the CFU/mL is on record as 2.00 × 10^5 CFU/mL. For the same molecule, in test [2] (Example 2), the “% Reduction” value is given as 99.44% and the Log10 reduction is on record as 2.25. Further, the “antibacterial effect / interaction” value in test [2] is “bactericidal”.

For the molecule Polymyxin B [Test 5], the CFU/mL in test [2] (Example 1, time zero control 1.80 × 10^6 CFU/mL, limit of detection 10 CFU/mL) is given as <1.00 × 10^1 CFU/mL. Besides, in test [2] (Example 1), the “% Reduction” value is on record as greater than 99.9996% and the Log10 reduction is greater than 5.45. Also, the “antibacterial effect / interaction” value in test [2] is listed as “essentially complete elimination”.

As to Polymyxin B [Test 11], the CFU/mL in test [2] (setting [3]) is 1.00 × 10^3 CFU/mL. In test [2] (Example 2), the “% Reduction” value is 99.997% and the Log10 reduction came out at 4.55.

(Values after US10682360B2, “Antimicrobial formulations and applications thereof” (priority 2014, dated 2020).)
